Structures can show the parent of a compound that is named as a salt. Marks after values point to notes of the source that are not given here.
Key:
adult male CD-1 mice = experiment: In vivo itch response assay (Compound 48/80-induced scratching); conditions: for Effect on scratch response: given 20 min before pruritogen Compound 48/80
Description: In Vivo Model and Procedures:
An in vivo model was devised and implemented to evaluate the antipruritic activity of compounds in mice. Compound 48/80 (Sigma Chemical), a known pruritogen in mice, was mixed in a 0.9% saline vehicle and administered to various cohorts of adult male CD-1 mice by s.c. injection at the nape of the neck at dosage levels of 12.5, 25, 50 and 100 μg. The saline vehicle alone was used as a control. The mice were monitored visually and scratching bouts were counted over the ensuing 30 minutes.
Next, test benzomorphan Compound #1 (see Examples 1 and 2 above) was given in various doses (Table 3 below) in the rear flank 20 minutes prior to pruritogen injection in the same manner as the Nalfurafine.

kappa opioid receptor = biological target: T1, kappa opioid receptor (Homo sapiens, UniProt P41145); experiment: κ-opioid receptor [35S]GTPγS functional assay; assay type: biochemical; conditions: relative to U69,593; read-out: GTPγS κ Emax [mean ± SEM]
T1 construct: expressed in transfected cells; host or cells: HEK-293
Description: Similarly for KOR, the κ GTP Emax (%) is the maximal effect elicited by a compound relative to the effect elicited by the known κ-agonist, U69,593.
κ-Opioid Receptor Functional Assay Procedures:
Functional [^35S]GTPγS binding assays were conducted as follows. Kappa opioid receptor membrane solution was prepared by sequentially adding final concentrations of 0.026 μg/μl kappa membrane protein (in-house), 10 μg/mL saponin, 3 μM GDP and 0.20 nM [^35S]GTPγS to binding buffer (100 mM NaCl, 10 mM MgCl2, 20 mM HEPES, pH 7.4) on ice. The prepared membrane solution (190 μl/well) was transferred to 96-shallow well polypropylene plates containing 10 μl of 20× concentrated stock solutions of agonist prepared in DMSO. Plates were incubated for 30 min at a temperature of about 25° C. with shaking. Reactions were terminated by rapid filtration onto 96-well Unifilter GF/B filter plates (Packard) using a 96-well tissue harvester (Packard) and followed by three filtration washes with 200 μl ice-cold […] (10 mM NaH2PO4, 10 mM Na2HPO4, pH 7.4). Filter plates were subsequently dried at 50° C. for 2-3 hours. Fifty μl/well scintillation cocktail (MicroScint20, Packard) was added and plates were counted in a Packard Top-Count for 1 min/well.

μ-opioid receptor = μ-opioid receptor (Homo sapiens, UniProt P35372); experiment: μ-opioid receptor [35S]GTPγS functional assay; assay type: biochemical
Source text: Measures of a compound's activity at a given receptor are given by GTP Emax and GTP EC50. GTP Emax (%) is the maximal effect elicited by a compound relative to the effect elicited by a standard, known agonist compound. GTP EC50 is the concentration of a compound providing 50% of the maximal response for that compound at a given receptor. For MOR, the μ GTP Emax (%) is the maximal effect elicited by a compound relative to the effect elicited by the standard MOR agonist [D-Ala^2, N-methyl-Phe^4 Gly-ol^5]-enkephalin (a/k/a DAMGO). Generally, the μ GTP Emax (%) value measures the efficacy of a compound to treat or prevent pain or diarrhea.
μ-Opioid Receptor Functional Assay Procedures:
[^35S]GTPγS functional assays were conducted using freshly thawed μ-receptor membranes. Assay reactions were prepared by sequentially adding the following reagents to binding buffer (100 mM NaCl, 10 mM MgCl2, 20 mM HEPES, pH 7.4) on ice (final concentrations indicated): membrane protein (0.026 mg/mL), saponin ([…]), GDP ([…]) and [^35S]GTPγS (0.20 nM; NEN). […] BetaScint scintillation cocktail (Wallac, Turku, Finland) was added (50 μl/well) and plates were counted using a Packard Top-Count for 1 min/well. Data were analyzed using the sigmoidal dose-response curve fitting functions in GraphPad PRISM v. […]

Sequence of μ-opioid receptor (P35372 whole entry, species assumed): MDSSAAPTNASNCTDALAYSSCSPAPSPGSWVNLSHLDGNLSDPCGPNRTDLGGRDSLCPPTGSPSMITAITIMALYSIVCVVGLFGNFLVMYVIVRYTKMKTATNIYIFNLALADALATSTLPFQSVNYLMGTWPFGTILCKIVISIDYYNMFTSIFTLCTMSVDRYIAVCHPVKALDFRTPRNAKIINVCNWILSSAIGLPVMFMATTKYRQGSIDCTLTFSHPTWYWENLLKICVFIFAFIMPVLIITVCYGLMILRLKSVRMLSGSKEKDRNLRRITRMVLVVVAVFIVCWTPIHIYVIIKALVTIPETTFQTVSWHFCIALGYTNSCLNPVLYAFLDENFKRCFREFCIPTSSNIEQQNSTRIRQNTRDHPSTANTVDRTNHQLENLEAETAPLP
T1 sequence (P41145 whole entry): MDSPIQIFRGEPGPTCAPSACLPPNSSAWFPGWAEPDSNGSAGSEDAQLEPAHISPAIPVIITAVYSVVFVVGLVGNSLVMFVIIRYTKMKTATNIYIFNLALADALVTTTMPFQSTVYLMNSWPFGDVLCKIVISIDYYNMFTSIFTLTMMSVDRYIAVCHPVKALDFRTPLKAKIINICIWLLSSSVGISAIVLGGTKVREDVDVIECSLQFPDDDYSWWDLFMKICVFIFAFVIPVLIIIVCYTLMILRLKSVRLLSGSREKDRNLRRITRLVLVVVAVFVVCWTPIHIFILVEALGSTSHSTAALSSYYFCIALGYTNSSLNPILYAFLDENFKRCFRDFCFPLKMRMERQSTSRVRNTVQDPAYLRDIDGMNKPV

SMILES | Total # Scratching Bouts in 30 mins (mean ± S.E.M.) (adult male CD-1 mice; 0.04 mg/kg s.c. 20 min before Compound 48/80 (0.5 mg/kg)) | Effect on scratch response (adult male CD-1 mice) | Emax (kappa opioid receptor) | Total # Scratching Bouts in 30 mins (mean ± S.E.M.) (adult male CD-1 mice; 3 mg/kg in rear flank 20 min before Compound 48/80 (0.5 mg/kg)) | Total # Scratching Bouts in 30 mins (mean ± S.E.M.) (adult male CD-1 mice; 10 mg/kg in rear flank 20 min before Compound 48/80 (0.5 mg/kg)) | Total # Scratching Bouts in 30 mins (mean ± S.E.M.) (adult male CD-1 mice; 30 mg/kg in rear flank 20 min before Compound 48/80 (0.5 mg/kg)) | EC50 (μ-opioid receptor) | Emax (μ-opioid receptor; relative to DAMGO, read-out: GTPγS μ Emax [mean ± SEM])
CN(C(=O)/C=C/c1ccoc1)[C@@H]1CC[C@@]2(O)[C@H]3Cc4ccc(O)c5c4[C@@]2(CCN3CC2CC2)[C@H]1O5 [Nalfurafine, Nalfurafine HCl, reference compound] | 25.6 ± 7.92^d | dose dependent reduction in scratch response | – | – | – | – | – | –
C=CC[N+]1(C)CCC2(C)c3cc(O)ccc3C[C@@H]1[C@@H]2C.[I-] (stereo partly drawn) [Compound #1] | – | alleviated pruritus by reducing the mean number of scratching bouts | 27.3 ± 3.38% | 155.8 ± 13.73^a | 129.4 ± 16.18^b | 70.8 ± 19.74^c | > 20 µM | 3.67 ± 1.33%

From patent US20140066475A1, “Method For Treating Pruritus” (Euro-Celtique S.A., priority 2012, published 2014)
